Laboratory results reported in ChEMBL document CHEMBL1201861, “Genomics of Drug Sensitity in Cancer screening data, Wellcome Trust Sanger Institute”.

What was measured:
Test in all cases: cells
Conditions in all cases: Homo sapiens
[1] = tested on: SBC-1; type: functional, cell-based;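 further: cell viability assay measuring growth inhibition of the SBC-1 cell line, IC50 being the concentration that halves growth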
Description: SANGER: Inhibition of human SBC-1 cell growth in a cell viability assay.

[2] = tested on: SHP77; type: functional, cell-based, SHP-77;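 further: growth inhibition of human SHP-77 cells measured by a cell viability assay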
Description: SANGER: Inhibition of human SHP-77 cell growth in a cell viability assay.

[3] = tested on: NEC8; type: functional, cell-based;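 further: growth inhibition of human NEC8 cells, read out by a cell viability assay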
Description: SANGER: Inhibition of human NEC8 cell growth in a cell viability assay.

[4] = tested on: KY821; type: functional, cell-based;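 further: growth inhibition of human KY821 cells, read out by a cell viability assay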
Description: SANGER: Inhibition of human KY821 cell growth in a cell viability assay.

[5] = tested on: RH-1; type: functional, cell-based;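 further: growth inhibition of human RH-1 cells, read out with a cell viability assay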
Description: SANGER: Inhibition of human RH-1 cell growth in a cell viability assay.

[6] = tested on: D-263MG; type: functional, cell-based
Description: SANGER: Inhibition of human D-263MG cell growth in a cell viability assay.

[7] = tested on: HCE-4; type: functional, cell-based;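 further: cell viability assay measuring inhibition of growth in the human HCE-4 cell line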
Description: SANGER: Inhibition of human HCE-4 cell growth in a cell viability assay.

[8] = tested on: KNS-42; type: functional, cell-based;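 further: growth inhibition of KNS-42 cells, read out with a cell viability assay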
Description: SANGER: Inhibition of human KNS-42 cell growth in a cell viability assay.

[9] = tested on: NB5; type: functional, cell-based;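 further: growth inhibition of NB5 cells, read out as cell viability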
Description: SANGER: Inhibition of human NB5 cell growth in a cell viability assay.

[10] = tested on: LS-411N; type: functional, cell-based
[11] = tested on: KS-1; type: functional, cell-based;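 further: growth inhibition of KS-1 cells, read out with a cell viability assay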
Description: SANGER: Inhibition of human KS-1 cell growth in a cell viability assay.

[12] = tested on: C2BBe1; type: functional, cell-based;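 further: growth inhibition of C2BBe1 cells, read out through a viability assay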
Description: SANGER: Inhibition of human C2BBe1 cell growth in a cell viability assay.

[13] = tested on: HOP-62; type: functional, cell-based;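 further: cell growth inhibition determined with a viability assay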
Description: SANGER: Inhibition of human HOP-62 cell growth in a cell viability assay.

[14] = tested on: MSTO-211H; type: functional, cell-based
Description: SANGER: Inhibition of human MSTO-211H cell growth in a cell viability assay.

[15] = tested on: BB65-RCC; type: functional, cell-based;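 further: growth inhibition of the cell line, measured with a cell viability assay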
Description: SANGER: Inhibition of human BB65-RCC cell growth in a cell viability assay.

[16] = tested on: EW-24; type: functional, cell-based;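 further: human EW-24 cancer cell line, growth inhibition read out via a cell viability assay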
Description: SANGER: Inhibition of human EW-24 cell growth in a cell viability assay.

[17] = tested on: HEL; type: functional, cell-based;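 further: growth inhibition of HEL cells, read out with a cell viability assay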
Description: SANGER: Inhibition of human HEL cell growth in a cell viability assay.

[18] = tested on: MOLT-4; type: functional, cell-based;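 further: growth inhibition of MOLT-4 cells, determined with a cell viability readout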
Description: SANGER: Inhibition of human MOLT-4 cell growth in a cell viability assay.

[19] = tested on: COLO-668; type: functional, cell-based
Description: SANGER: Inhibition of human COLO-668 cell growth in a cell viability assay.

[20] = tested on: LB373-MEL-D; type: functional, cell-based;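 further: growth inhibition of the cell line, read out in a cell viability assay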
Description: SANGER: Inhibition of human LB373-MEL-D cell growth in a cell viability assay.

[21] = tested on: CGTH-W-1; type: functional, cell-based;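 further: growth inhibition of human CGTH-W-1 cells measured by cell viability assay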
Description: SANGER: Inhibition of human CGTH-W-1 cell growth in a cell viability assay.

[22] = tested on: ALL-PO; type: functional, cell-based;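 further: growth inhibition of ALL-PO cells, read out by a cell viability assay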
Description: SANGER: Inhibition of human ALL-PO cell growth in a cell viability assay.

[23] = tested on: NTERA-2-cl-D1; type: functional, cell-based;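 further: inhibition of cell growth, measured with a cell viability assay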
Description: SANGER: Inhibition of human NTERA-S-cl-D1 cell growth in a cell viability assay.

[24] = tested on: GR-ST; type: functional, cell-based
Description: SANGER: Inhibition of human GR-ST cell growth in a cell viability assay.

[25] = tested on: GT3TKB; type: functional, cell-based;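 further: growth inhibition of the cell line, read out with a cell viability assay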
Description: SANGER: Inhibition of human GT3TKB cell growth in a cell viability assay.

[26] = tested on: LB1047-RCC; type: functional, cell-based;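 further: inhibition of cell growth, determined with a cell viability assay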
Description: SANGER: Inhibition of human LB1047-RCC cell growth in a cell viability assay.

[27] = tested on: KE-37; type: functional, cell-based;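 further: growth inhibition of KE-37 cells, read out with a cell viability assay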
Description: SANGER: Inhibition of human KE-37 cell growth in a cell viability assay.

[28] = tested on: ES8; type: functional, cell-based;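 further: growth inhibition of human ES8 cells, read out with a cell viability assay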
Description: SANGER: Inhibition of human ES8 cell growth in a cell viability assay.

[29] = tested on: EW-11; type: functional, cell-based;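 further: growth inhibition of human EW-11 cells, measured with a cell viability assay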
Description: SANGER: Inhibition of human EW-11 cell growth in a cell viability assay.

[30] = tested on: K5; type: functional, cell-based
Description: SANGER: Inhibition of human K5 cell growth in a cell viability assay.

[31] = tested on: LNCaP-Clone-FGC; type: functional, cell-based
Description: SANGER: Inhibition of human LNCaP-Clone-FGC cell growth in a cell viability assay.

[32] = tested on: DSH1; type: functional, cell-based;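 further: growth inhibition of human DSH1 cells, measured with a cell viability readout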
Description: SANGER: Inhibition of human DSH1 cell growth in a cell viability assay.

[33] = tested on: ES3; type: functional, cell-based;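 further: growth inhibition of ES3 cells, read out with a cell viability assay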
Description: SANGER: Inhibition of human ES3 cell growth in a cell viability assay.

[34] = tested on: NMC-G1; type: functional, cell-based;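 further: growth inhibition of the NMC-G1 cell line, measured with a cell viability read-out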
Description: SANGER: Inhibition of human NMC-G1 cell growth in a cell viability assay.

[35] = tested on: SNU-C2B; type: functional, cell-based;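 further: cell viability readout used to measure compound-driven suppression of SNU-C2B cell proliferation, IC50 marking half-maximal growth inhibition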
Description: SANGER: Inhibition of human SNU-C2B cell growth in a cell viability assay.

[36] = tested on: SH-4; type: functional, cell-based;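 further: growth inhibition of SH-4 cells, read out with a cell viability assay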
Description: SANGER: Inhibition of human SH-4 cell growth in a cell viability assay.

[37] = tested on: COR-L88; type: functional, cell-based;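 further: growth inhibition of COR-L88 cells, read out with a cell viability assay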
Description: SANGER: Inhibition of human COR-L88 cell growth in a cell viability assay.

[38] = tested on: P30-OHK; type: functional, cell-based;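 further: growth inhibition of the P30-OHK cell line, read out with a cell viability assay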
Description: SANGER: Inhibition of human P30-OHK cell growth in a cell viability assay.

[39] = tested on: IST-MES1; type: functional, cell-based;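 further: growth inhibition of IST-MES1 cells, measured with a cell viability assay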
Description: SANGER: Inhibition of human IST-MES1 cell growth in a cell viability assay.

[40] = tested on: J-RT3-T3-5; type: functional, cell-based;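 further: cell viability assay measuring growth inhibition of human J-RT3-T3-5 cells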
Description: SANGER: Inhibition of human J-RT3-T3-5 cell growth in a cell viability assay.

[41] = tested on: KALS-1; type: functional, cell-based;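 further: growth inhibition of KALS-1 cells, determined with a cell viability assay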
Description: SANGER: Inhibition of human KALS-1 cell growth in a cell viability assay.

[42] = tested on: 8-MG-BA; type: functional, cell-based;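 further: growth inhibition of 8-MG-BA cells, read out with a cell viability assay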
Description: SANGER: Inhibition of human 8-MG-BA cell growth in a cell viability assay.

[43] = tested on: GCIY; type: functional, cell-based;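 further: growth inhibition of the human GCIY cell line, read out by a cell viability assay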
Description: SANGER: Inhibition of human GCIY cell growth in a cell viability assay.

[44] = tested on: TK-10; type: functional, cell-based;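 further: growth inhibition of TK-10 cells, read out in a cell viability assay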
Description: SANGER: Inhibition of human TK10 cell growth in a cell viability assay.

[45] = tested on: D283 Med; type: functional, cell-based
Description: SANGER: Inhibition of human D-283MED cell growth in a cell viability assay.

[46] = tested on: EM-2; type: functional, cell-based;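 further: growth inhibition of EM-2 cells, read out with a cell viability assay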
Description: SANGER: Inhibition of human EM-2 cell growth in a cell viability assay.

[47] = tested on: NCI-H23; type: functional, cell-based;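 further: cell viability assay measuring growth inhibition of NCI-H23 cells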
Description: SANGER: Inhibition of human NCI-H23 cell growth in a cell viability assay.

[48] = tested on: KU812 cell line; type: functional, cell-based;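 further: growth inhibition of KU812 cells, read out with a cell viability assay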
Description: SANGER: Inhibition of human KU812 cell growth in a cell viability assay.

[49] = tested on: U-266; type: functional, cell-based
Description: SANGER: Inhibition of human U-266 cell growth in a cell viability assay.

[50] = tested on: SCC-15; type: functional, cell-based;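 further: growth inhibition of SCC-15 cells, read out with a cell viability assay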
Description: SANGER: Inhibition of human SCC-15 cell growth in a cell viability assay.

[51] = tested on: SK-N-DZ; type: functional, cell-based;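 further: growth inhibition of the cancer cell line, read out through a viability assay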
Description: SANGER: Inhibition of human SK-N-DZ cell growth in a cell viability assay.

[52] = tested on: MLMA; type: functional, cell-based;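 further: growth inhibition of MLMA cells (human), determined through a cell viability readout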
Description: SANGER: Inhibition of human MLMA cell growth in a cell viability assay.

[53] = tested on: KURAMOCHI; type: functional, cell-based;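 further: growth inhibition of KURAMOCHI cells, read out with a cell viability assay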
Description: SANGER: Inhibition of human KURAMOCHI cell growth in a cell viability assay.

[54] = tested on: KNS-81-FD; type: functional, cell-based;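 further: growth inhibition of KNS-81-FD cells, read out with a cell viability assay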
Description: SANGER: Inhibition of human KNS-81-FD cell growth in a cell viability assay.

[55] = tested on: Lu-65; type: functional, cell-based;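 further: growth inhibition of Lu-65 cancer cells, read out by a cell viability assay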
Description: SANGER: Inhibition of human LU-65 cell growth in a cell viability assay.

[56] = tested on: NCI-H1648; type: functional, cell-based;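 further: cell viability assay measuring inhibition of NCI-H1648 cell growth, from the Sanger screening data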
Description: SANGER: Inhibition of human NCI-H1648 cell growth in a cell viability assay.

[57] = tested on: CCRF-CEM; type: functional, cell-based
Description: SANGER: Inhibition of human CCRF-CEM cell growth in a cell viability assay.

[58] = tested on: NCI-H720; type: functional, cell-based
Description: SANGER: Inhibition of human NCI-H720 cell growth in a cell viability assay.

[59] = tested on: OMC-1; type: functional, cell-based
Description: SANGER: Inhibition of human OMC-1 cell growth in a cell viability assay.

[60] = tested on: HCE-T; type: functional, cell-based
Description: SANGER: Inhibition of human HCE-T cell growth in a cell viability assay.

[61] = tested on: BT-474; type: functional, cell-based
Description: SANGER: Inhibition of human BT-474 cell growth in a cell viability assay.

[62] = tested on: LS-123; type: functional, cell-based
Description: SANGER: Inhibition of human LS-123 cell growth in a cell viability assay.

[63] = tested on: JVM-2; type: functional, cell-based
Description: SANGER: Inhibition of human JVM-2 cell growth in a cell viability assay.

[64] = tested on: NCI-H1650; type: functional, cell-based
Description: SANGER: Inhibition of human NCI-H1650 cell growth in a cell viability assay.

[65] = tested on: GOTO; type: functional, cell-based
Description: SANGER: Inhibition of human GOTO cell growth in a cell viability assay.

[66] = tested on: EC-GI-10; type: functional, cell-based
Description: SANGER: Inhibition of human EC-GI-10 cell growth in a cell viability assay.

C/C=C(/C)C(=O)O[C@H]1C(C)=C2[C@H]([C@@H]1OC(=O)CCCCCCC)[C@@](C)(OC(C)=O)C[C@H](OC(=O)CCC)[C@@]1(O)[C@H]2OC(=O)[C@@]1(C)O [THAPSIGARGIN]
IC50 [1]: 48 nM | IC50 [2]: 59.1 nM | IC50 [3]: 11 nM | IC50 [4]: 0.636 nM | IC50 [5]: 43.4 nM | IC50 [6]: 37.2 nM | IC50 [7]: 4.25 nM | IC50 [8]: 16.9 nM | IC50 [9]: 66.6 nM | IC50 [10]: 13.6 nM | IC50 [11]: 3.61 nM | IC50 [12]: 29.3 nM | IC50 [13]: 0.601 nM | IC50 [14]: 293 nM | IC50 [15]: 5.08 nM | IC50 [16]: 149 nM | IC50 [17]: 46.3 nM | IC50 [18]: 39.5 nM | IC50 [19]: 19.7 nM | IC50 [20]: 29.1 nM | IC50 [21]: < 2 nM | IC50 [22]: 16.3 nM | IC50 [23]: < 2 nM | IC50 [24]: 10.5 nM | IC50 [25]: 12.2 nM | IC50 [26]: 7.05 nM | IC50 [27]: 7.53 nM | IC50 [28]: 18.1 nM | IC50 [29]: 54.8 nM | IC50 [30]: > 512 nM | IC50 [31]: 32.2 nM | IC50 [32]: 13.9 nM | IC50 [33]: 4.1 nM | IC50 [34]: 21.5 nM | IC50 [35]: 12.4 nM | IC50 [36]: 17.8 nM | IC50 [37]: 266 nM | IC50 [38]: 2.08 nM | IC50 [39]: 138 nM | IC50 [40]: 141 nM | IC50 [41]: 0.516 nM | IC50 [42]: 1.99 nM | IC50 [43]: 53.5 nM | IC50 [44]: 22.7 nM | IC50 [45]: < 2 nM | IC50 [46]: 55.4 nM | IC50 [47]: > 512 nM | IC50 [48]: 2.12 nM | IC50 [49]: 2.91 nM | IC50 [50]: 1.12 nM | IC50 [51]: 43.2 nM | IC50 [52]: 57.5 nM | IC50 [53]: 5.44 nM | IC50 [54]: > 512 nM | IC50 [55]: 8.49 nM | IC50 [56]: 1.44 nM | IC50 [57]: 30.9 nM | IC50 [58]: > 512 nM | IC50 [59]: 83 nM | IC50 [60]: 36.3 nM | IC50 [61]: 210 nM | IC50 [62]: 6.23 nM | IC50 [63]: > 512 nM | IC50 [64]: 147 nM | IC50 [65]: 50.5 nM | IC50 [66]: 355 nM

C/C(O)=C(\C#N)C(=O)Nc1cc(Br)ccc1Br
IC50 [1]: > 16000 nM | IC50 [2]: > 16000 nM | IC50 [3]: > 16000 nM | IC50 [4]: > 16000 nM | IC50 [5]: > 16000 nM | IC50 [6]: > 16000 nM | IC50 [7]: > 16000 nM | IC50 [8]: > 16000 nM | IC50 [9]: > 16000 nM | IC50 [10]: > 16000 nM | IC50 [11]: > 16000 nM | IC50 [12]: > 16000 nM | IC50 [13]: > 16000 nM | IC50 [14]: > 16000 nM | IC50 [15]: > 16000 nM | IC50 [16]: > 16000 nM | IC50 [17]: > 16000 nM | IC50 [18]: > 16000 nM | IC50 [19]: > 16000 nM | IC50 [20]: > 16000 nM | IC50 [21]: > 16000 nM | IC50 [22]: > 16000 nM | IC50 [23]: > 16000 nM | IC50 [24]: > 16000 nM | IC50 [25]: > 16000 nM | IC50 [26]: > 16000 nM | IC50 [27]: > 16000 nM | IC50 [28]: > 16000 nM | IC50 [29]: > 16000 nM | IC50 [30]: > 16000 nM | IC50 [31]: > 16000 nM | IC50 [32]: > 16000 nM | IC50 [33]: > 16000 nM | IC50 [34]: > 16000 nM | IC50 [35]: > 16000 nM | IC50 [36]: > 16000 nM | IC50 [37]: > 16000 nM | IC50 [38]: > 16000 nM | IC50 [39]: > 16000 nM | IC50 [40]: > 16000 nM | IC50 [41]: > 16000 nM | IC50 [42]: > 16000 nM | IC50 [43]: > 16000 nM | IC50 [44]: > 16000 nM | IC50 [45]: > 16000 nM | IC50 [46]: > 16000 nM | IC50 [47]: > 16000 nM | IC50 [48]: > 16000 nM | IC50 [49]: > 16000 nM | IC50 [50]: > 16000 nM | IC50 [51]: > 16000 nM | IC50 [52]: > 16000 nM | IC50 [53]: > 16000 nM | IC50 [54]: > 16000 nM | IC50 [55]: > 16000 nM | IC50 [56]: > 16000 nM | IC50 [57]: > 16000 nM | IC50 [58]: > 16000 nM | IC50 [59]: > 16000 nM | IC50 [60]: > 16000 nM | IC50 [61]: > 16000 nM | IC50 [62]: > 16000 nM | IC50 [63]: > 16000 nM | IC50 [64]: > 16000 nM | IC50 [65]: > 16000 nM | IC50 [66]: > 16000 nM
